This note sets out measurements from paper PMC4171615, “Discovery of selective inhibitors of Glutaminase-2, which inhibit mTORC1, activate autophagy and inhibit proliferation in cancer cells” (Oncotarget, 2014).

Structures are written as SMILES. Where a chain is given by its changes, count along the chain named.

One test concerns the target T1, KGA_D520K (Homo sapiens, UniProt O94925, D520K).
T1 construct: a KGA cDNA fragment of 1644 bp (residues Leu123-Leu669); His-tag (N); made in house; host or cells: Escherichia coli
T1 sequence (O94925 123-669 D520K): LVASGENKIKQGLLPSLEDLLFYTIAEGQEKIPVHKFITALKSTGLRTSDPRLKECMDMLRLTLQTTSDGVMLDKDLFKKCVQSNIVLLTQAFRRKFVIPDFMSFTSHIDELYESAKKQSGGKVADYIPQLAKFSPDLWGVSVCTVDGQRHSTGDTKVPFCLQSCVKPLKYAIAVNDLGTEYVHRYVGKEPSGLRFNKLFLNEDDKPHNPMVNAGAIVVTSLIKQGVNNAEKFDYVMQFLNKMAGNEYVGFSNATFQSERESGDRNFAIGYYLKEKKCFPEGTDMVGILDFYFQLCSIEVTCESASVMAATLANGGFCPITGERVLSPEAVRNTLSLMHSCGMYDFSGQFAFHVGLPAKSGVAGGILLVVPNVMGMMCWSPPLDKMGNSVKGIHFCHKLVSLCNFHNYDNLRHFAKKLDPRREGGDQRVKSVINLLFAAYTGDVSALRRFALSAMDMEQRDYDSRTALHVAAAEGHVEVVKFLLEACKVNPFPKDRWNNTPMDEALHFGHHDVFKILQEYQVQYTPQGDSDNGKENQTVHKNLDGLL
Briefly: Glutaminase activity assay, KGA mutant D520K. Type of test: biochemical. As to the method:
(§1) Human glutaminase activity was measured using a two-step assay as described previously. A microtiter assay format was used to facilitate the collection of multiple data points. Typically, 10 μl of compound, which was dissolved in DMSO, was added to 80 μl of an initial assay mix (0.1 mM hKGA, 0.2 mM EDTA and 50 mM Tris/acetate, pH 8.6). Samples were incubated at 25°C for 10 min and then 10 μl of 200 mM glutamine were added to the reaction mix. After adding glutamine, the reactions were incubated at 37°C for 60 min and then quenched by the addition of 10 μl of 0.6 M HCl. Subsequently, 100 μl of a second reaction mixture (3.7 units of purified bovine liver glutamate dehydrogenase, 160 mM Tris/acetate [pH 9.4], 400 mM hydrazine, 5 mM ADP and 2 mM NAD^+) was added to the stopped first reaction mixture and incubated for 30 min at 25°C. The absorbance at 340 nm was measured using a Wallac Victor2V plate reader (PerkinElmer), fitted with a 340 nm excitation filter. Sample absorbance was measured against a blank, containing no human glutaminase.
Site-directed mutagenesis was performed on the pET28a(+)-GAB or pET28a(+)-KGA plasmids using PfuUltra II Fusion HS DNA polymerase (Agilent Technologies) to create the GAB and KGA mutants. […] The sequence alignment was compared with crystal structure of the GAC (PDB code: 3UO9) and the resulting model of GAB was analyzed using the Swiss-PDB server. […]

Another test deals with T2, KGA_Y394L (Homo sapiens, UniProt O94925, Y394L).
T2 construct: a KGA cDNA fragment of 1644 bp (residues Leu123-Leu669); His-tag (N); made in house; host or cells: Escherichia coli
T2 sequence (O94925 123-669 Y394L): T1 sequence (O94925 123-669 D520K) with Y272L, K398D
Briefly: Glutaminase activity assay, KGA mutant Y394L. The test is classed as biochemical. As to the method:
as §1, with “Typically, 10 μl of compound, which was dissolved in DMSO, was added to 80 μl of an initial assay mix (0.1 mM hKGA, 0.2 mM EDTA and 50 mM Tris/acetate, pH 8.6).” left out
Site-directed mutagenesis was performed on the pET28a(+)-GAB or pET28a(+)-KGA plasmids using PfuUltra II Fusion HS DNA polymerase (Agilent Technologies) to create the GAB and KGA mutants. The deep view program (Version 3.7) of the Swiss-MODEL server was used to generate the three dimensional structure of homologous modeled GAB. Using the integrated sequence alignment tools and structural superimposition algorithms, the target sequence was mapped on the modeling templates.

Take `CCCCCCCCCCCCCC(CC1=CC(=O)C=C(OC)C1=O)OC(C)=O` (centres unmarked) [AV-1]: the IC50 was determined as 290 ± 30 nM against KGA_D520K and 1400 ± 200 nM at KGA_Y394L.

A word on the IC50: it is the concentration needed to halve the response being measured. High values mean a need for much substance, low ones inhibition by little substance.
